Measured values reported in paper PMC11404609, “Gut microbiota-mediated C-sulfonate metabolism impairs the bioavailability and anti-cholestatic efficacy of andrographolide” (Gut Microbes, 2024).

Experiments:
D. piger = assay type: in vitro ADME, Desulfovibrio piger
Protocol: The cecum contents from mice were collected and mixed with sterilized anaerobic medium in a ratio of 1.0 g to 10 mL, with gentle agitation. After filtered, the mixed medium containing the intestinal flora was placed in an anaerobic environment and preincubated at 37°C for 30 min before use. Mixed medium with or without APS reductase inhibitor bromocriptine mesylate (20 μg/mL) was incubated with AP (10 μg/mL), while autoclaved mixed medium without APS reductase inhibitor served as the control. Incubation was performed in a shaking incubator at 37°C for 6 h, with strict maintenance of anaerobic condition throughout the process.[44] Similarly, D. piger (0.2 mL, 1 × 10^8 CFU/mL) with or without inhibitor, was incubated with AP for 0, 3, 6, and 12 h, with autoclaved D. piger without inhibitor serving as the control. […] And then samples were analyzed by UPLC-MS/MS to detect the concentrations of AP and APM. Concentrations of APS reductase and HSO3^− were also determined at the end of incubation.
For the determination of APS reductase concentration, the supernatant from mouse cecum contents and the D. piger strain were assessed using microorganism APS reductase elisa assay kit (Shanghai Senxingyan Biotechnology Co., Ltd., China), following the instructions provided with the kit. […] Subsequently, the absorbance of the resulting solutions was measured at a wavelength of 560 nm after 40 min.

[1] = Tissue distribution of AP and APM in rats; assay type: in vivo; conditions: ABX-treated rats vs Control, AP 120 mg/kg oral
Protocol: Control and ABX rats were orally administered a single dose of AP at 120 mg/kg. Control, ABX and germ-free C57BL/6J mice were orally administered a single dose of AP at 100 mg/kg. After 90 min of AP administration, all animals were euthanized, and blood and tissue samples were collected for subsequent analysis.
(§1) An ACQUITY^TM UPLC-MS/MS system equipped with an ACQUITY^TM UPLC BEH C18 Column (50 × 2.1 mm I.D., 1.7 μm, Waters, Milford, MA, USA) was utilized for the quantification of AP and APM as previously described.[47] Briefly, the detection samples (50 μL) were mixed with 50 μL of IS (50 ng/mL). AP and APM were extracted by 400 μL cold methanol. Supernatants were dried under nitrogen stream. Then, the residue was dissolved with 50% methanol in water, centrifuged for 30 min at 13,000 rpm, and 10 µL of the supernatant was subjected to UPLC-MS/MS analysis. The mobile phases consisted of eluent A (water) and eluent B (methanol) with a gradient elution as follows: 0–0.8 min, 10% B; 0.8–1.2 min, 10–90% B; 1.2–5.0 min, 90% B; 5.0–5.5 min, 90–10% B; 5.5–7.0 min, 10% B. The flow rate was 0.3 mL/min and the injection volume of all samples was 10 μL. The quantification of AP, APM and IS was performed by UPLC-MS/MS using an MRM method with the transitions of m/z 349.1→m/z 287.2 for AP, m/z 413.2→m/z 287.2 for APM, m/z 269→m/z 133 for IS.
AP was administered intravenously and orally to detect the production of the C-sulfonate metabolite APM. In tissue distribution experiment, rats were given AP intravenously (24 mg/kg) or orally (120 mg/kg), while mice received AP intravenously (20 mg/kg) or orally (100 mg/kg). After a 90-minute interval, the animals were sacrificed, and their liver, kidneys, small intestine, and colon were collected for analysis. In pharmacokinetic studies, rats were administered 24 mg/kg of AP intravenously or 120 mg/kg of AP by oral gavage. Blood samples were collected at predetermined time intervals (0, 5, 10, 20, 30, 40, 60, 90, 120, 180, 240, 360, and 480 min), as described, to detect the content of AP and APM by UPLC-MS/MS.

[2] = Plasma pharmacokinetics of AP after oral administration in mice; assay type: in vivo; conditions: for Fr (%) relative oral bioavailability / AUC(0-inf) / AUC(0-t) / Cmax / Tmax / half-life: AP 100 mg/kg oral gavage; for AUC(0-inf) / AUC(0-t) / Cmax / Tmax / half-life: mouse, plasma, po, 100 mg/kg, mean ± SD
Protocol: Mice were orally administered APS reductase inhibitor bromocriptine mesylate (20 mg/kg, p.o.) or Na2SO4 (200 mg/kg, p.o.) or saline solution 1 week prior to AP treatment (a single dose of AP at 100 mg/kg, p.o.). Blood samples (50 μL) were collected at predetermined time points (0, 10, 20, 40, 60, 90, 120, 240, 360 min). In specific cases, mice were orally administrated with D. piger suspension (0.2 mL, 1 × 10^9 CFU/mL) or saline solution by oral gavage for 2 weeks before AP treatment (a single dose of AP at 100 mg/kg, p.o.).
The pharmacokinetic parameters of AP including peak time (Tmax), maximum concentration (Cmax), area under the curve from zero time to the last time point measured (AUC0-t), area under the curve from zero time to infinity (AUC0-∞), and elimination half-life (t1/2) were estimated using DAS 2.0 software (Shanghai, China). The relative oral bioavailability (Fr) of AP was calculated by the following equation: Fr(%)=AUC0−∞of ABX/Inhibitor/SO42−/D.piger/AUC0−∞of Control×100%
as §1

[3] = mice, Control group (Table 3), n = 10
[4] = mice, Control group (Table 4), n = 12
[5] = mice, D. piger group (D. piger suspension by gavage 2 weeks before), n = 12
[6] = mice, Inhibitor group (bromocriptine mesylate 20 mg/kg p.o. 1 week before), n = 10
[7] = mice, SO4^2- group (Na2SO4 200 mg/kg p.o. 1 week before), n = 10

Structure (SMILES): C=C1CC[C@@H]2[C@](C)(CO)[C@H](O)CC[C@@]2(C)[C@@H]1C/C=C1/C(=O)OC[C@H]1O [AP, Andrographolide]
- metabolism of AP into APM by D. piger in vitro (D. piger): time-dependent ability to metabolize AP into APM
- levels of AP in plasma and tissues [1]: elevated levels
- reduction in AP bioavailability ([2]; mice colonized with D. piger): 60.11%
- Fr (%) relative oral bioavailability ([2]; mice, D. piger group vs Control (AUC0-∞ ratio)): 39.89%
- Fr (%) relative oral bioavailability ([2]; mice, Inhibitor group vs Control (AUC0-∞ ratio)): 147.48%
- Fr (%) relative oral bioavailability ([2]; mice, SO4^2- group vs Control (AUC0-∞ ratio)): 29.42%
- increase in AP bioavailability ([2]; mice, inhibition of APS reductase by bromocriptine mesylate): 47.48%
- reduction in AP bioavailability ([2]; mice, treatment of Na2SO4): 70.58%
- AUC(0-inf) [2, 3]: 772 ng·h/mL
- AUC(0-t) [2, 3]: 646 ng·h/mL
- Cmax [2, 3]: 500 ± 330 ng/mL
- Tmax [2, 3]: 32 min
- half-life [2, 3]: 146 ± 67.4 min
- AUC(0-inf) [2, 4]: 1030 ng·h/mL
- AUC(0-t) [2, 4]: 909 ng·h/mL
- Cmax [2, 4]: 760 ± 440 ng/mL
- Tmax [2, 4]: 41.7 min
- half-life [2, 4]: 136 ± 65.2 min
- AUC(0-inf) [2, 5]: 411 ng·h/mL
- AUC(0-t) [2, 5]: 374 ng·h/mL
- Cmax [2, 5]: 360 ± 280 ng/mL
- Tmax [2, 5]: 35 min
- half-life [2, 5]: 77.2 ± 38.6 min
- AUC(0-inf) [2, 6]: 1140 ng·h/mL
- AUC(0-t) [2, 6]: 906 ng·h/mL
- Cmax [2, 6]: 970 ± 370 ng/mL
- Tmax [2, 6]: 27 min
- half-life [2, 6]: 146 ± 86.4 min
- AUC(0-inf) [2, 7]: 227 ng·h/mL
- AUC(0-t) [2, 7]: 199 ng·h/mL
- Cmax [2, 7]: 142 ± 30 ng/mL
- Tmax [2, 7]: 17 min
- half-life [2, 7]: 133 ± 104 min
